# Assay results reported in ChEMBL document CHEMBL3045111, “Synthesis and herbicidal activities of novel 3-(substituted benzyloxy or phenoxy)-6-methyl-4-(3-trifluoromethylphenyl)pyridazine derivatives” (2012).
# Activity calls are given as the source filed them. The calls are words filed in the database; no cut-off is given here.
# Tests used:
# [1] = test system: Brassica rapa subsp. oleifera; assay: Post-emergence herbicidal activity against one-leaf stage Brassica rapa subsp. oleifera under greenhouse condition assessed as complete bleaching of leaves at 600 g /ha measured after 24 days by spray method; format: functional, organism-based
# [2] = test system: Brassica rapa subsp. oleifera; assay: Post-emergence herbicidal activity against one-leaf stage Brassica rapa subsp. oleifera under greenhouse condition at 7.5 g /ha measured after 24 days by spray method; format: functional; details: 576 h, read-out: GI
# [3] = test system: Brassica rapa subsp. oleifera; assay: Post-emergence herbicidal activity against one-leaf stage Brassica rapa subsp. oleifera under greenhouse condition at 15 g /ha measured after 24 days by spray method; format: functional; details: 576 h, read-out: GI
# [4] = test system: Brassica rapa subsp. oleifera; assay: Post-emergence herbicidal activity against one-leaf stage Brassica rapa subsp. oleifera under greenhouse condition at 30 g /ha measured after 24 days by spray method; format: functional; details: 576 h, read-out: GI
# [5] = test system: Brassica rapa subsp. oleifera; assay: Post-emergence herbicidal activity against one-leaf stage Brassica rapa subsp. oleifera under greenhouse condition at 60 g /ha measured after 24 days by spray method; format: functional; details: 576 h, read-out: GI
# [6] = test system: Brassica rapa subsp. oleifera; assay: Post-emergence herbicidal activity against one-leaf stage Brassica rapa subsp. oleifera under greenhouse condition at 75 g /ha measured after 24 days by spray method; format: functional; details: 576 h, read-out: GI
# [7] = test system: Brassica rapa subsp. oleifera; assay: Post-emergence herbicidal activity against one-leaf stage Brassica rapa subsp. oleifera under greenhouse condition at 150 g /ha measured after 24 days by spray method; format: functional; details: 576 h, read-out: GI
# [8] = test system: Brassica rapa subsp. oleifera; assay: Post-emergence herbicidal activity against one-leaf stage Brassica rapa subsp. oleifera under greenhouse condition at 300 g /ha measured after 24 days by spray method; format: functional; details: 576 h, read-out: GI
# [9] = test system: Brassica rapa subsp. oleifera; assay: Post-emergence herbicidal activity against one-leaf stage Brassica rapa subsp. oleifera under greenhouse condition at 600 g /ha measured after 24 days by spray method; format: functional; details: 576 h, read-out: GI
# Digitaria [10] = assay: Post-emergence herbicidal activity against one-leaf stage of Digitaria adscendens under greenhouse condition at 750 g /ha measured after 24 days by spray method; format: functional; details: in Digitaria adscendens, 576 h, read-out: GI
# Echinochloa crus-galli [11] = assay: Post-emergence herbicidal activity against one-leaf stage of Echinochloa crus-galli (barnyard grass) under greenhouse condition at 750 g /ha measured after 24 days by spray method; format: functional; details: 576 h, read-out: GI
# Amaranthus retroflexus [12] = assay: Post-emergence herbicidal activity against one-leaf stage of Amaranthus retroflexus under greenhouse condition at 750 g /ha measured after 24 days by spray method; format: functional; details: 576 h, read-out: GI
# [13] = test system: Brassica rapa subsp. oleifera; assay: Post-emergence herbicidal activity against one-leaf stage Brassica rapa subsp. oleifera under greenhouse condition at 750 g /ha measured after 24 days by spray method; format: functional; details: 576 h, read-out: GI
# Digitaria [14] = assay: Pre-emergence herbicidal activity against Digitaria adscendens under greenhouse condition at 750 g /ha measured after 24 days by spray method; format: functional; details: in Digitaria adscendens, 576 h, read-out: GI
# Echinochloa crus-galli [15] = assay: Pre-emergence herbicidal activity against Echinochloa crus-galli (barnyard grass) under greenhouse condition at 750 g /ha measured after 24 days by spray method; format: functional; details: 576 h, read-out: GI
# Amaranthus retroflexus [16] = assay: Pre-emergence herbicidal activity against Amaranthus retroflexus under greenhouse condition at 750 g /ha measured after 24 days by spray method; format: functional; details: 576 h, read-out: GI
# [17] = test system: Brassica rapa subsp. oleifera; assay: Pre-emergence herbicidal activity against Brassica rapa subsp. oleifera under greenhouse condition at 750 g /ha measured after 24 days by spray method; format: functional; details: 576 h, read-out: GI
# Spirodela polyrhiza [18] = assay: Bleaching herbicidal activity in Spirodela polyrhiza fronds cultured in compound-containing in medium assessed as chlorophyll inhibition at 1 ug/ml after 7 days; format: functional; details: 168 h
# Spirodela polyrhiza [19] = assay: Bleaching herbicidal activity in Spirodela polyrhiza fronds cultured in compound-containing in medium assessed as chlorophyll inhibition at 10 ug/ml after 7 days; format: functional; details: 168 h
# Amaranthus retroflexus [20] = assay: Post-emergence herbicidal activity against one-leaf stage Amaranthus retroflexus under greenhouse condition assessed as complete bleaching of leaves at 150 g /ha measured after 24 days by spray method; format: functional, organism-based
# Amaranthus retroflexus [21] = assay: Post-emergence herbicidal activity against one-leaf stage Amaranthus retroflexus under greenhouse condition assessed as complete bleaching of leaves at 300 g /ha measured after 24 days by spray method; format: functional, organism-based
# Amaranthus retroflexus [22] = assay: Post-emergence herbicidal activity against one-leaf stage Amaranthus retroflexus under greenhouse condition assessed as complete bleaching of leaves at 600 g /ha measured after 24 days by spray method; format: functional, organism-based
# [23] = test system: Brassica rapa subsp. oleifera; assay: Post-emergence herbicidal activity against one-leaf stage Brassica rapa subsp. oleifera under greenhouse condition assessed as complete bleaching of leaves at 7.5 g /ha measured after 24 days by spray method; format: functional, organism-based
# [24] = test system: Brassica rapa subsp. oleifera; assay: Post-emergence herbicidal activity against one-leaf stage Brassica rapa subsp. oleifera under greenhouse condition assessed as complete bleaching of leaves at 15 g /ha measured after 24 days by spray method; format: functional, organism-based
# [25] = test system: Brassica rapa subsp. oleifera; assay: Post-emergence herbicidal activity against one-leaf stage Brassica rapa subsp. oleifera under greenhouse condition assessed as complete bleaching of leaves at 30 g /ha measured after 24 days by spray method; format: functional, organism-based
# [26] = test system: Brassica rapa subsp. oleifera; assay: Post-emergence herbicidal activity against one-leaf stage Brassica rapa subsp. oleifera under greenhouse condition assessed as complete bleaching of leaves at 60 g /ha measured after 24 days by spray method; format: functional, organism-based
# [27] = test system: Brassica rapa subsp. oleifera; assay: Post-emergence herbicidal activity against one-leaf stage Brassica rapa subsp. oleifera under greenhouse condition assessed as complete bleaching of leaves at 75 g /ha measured after 24 days by spray method; format: functional, organism-based
# [28] = test system: Brassica rapa subsp. oleifera; assay: Post-emergence herbicidal activity against one-leaf stage Brassica rapa subsp. oleifera under greenhouse condition assessed as complete bleaching of leaves at 150 g /ha measured after 24 days by spray method; format: functional, organism-based
# [29] = test system: Brassica rapa subsp. oleifera; assay: Post-emergence herbicidal activity against one-leaf stage Brassica rapa subsp. oleifera under greenhouse condition assessed as complete bleaching of leaves at 300 g /ha measured after 24 days by spray method; format: functional, organism-based
# Amaranthus retroflexus [30] = assay: Post-emergence herbicidal activity against one-leaf stage Amaranthus retroflexus under greenhouse condition assessed as complete bleaching of leaves at 15 g /ha measured after 24 days by spray method; format: functional, organism-based
# Amaranthus retroflexus [31] = assay: Post-emergence herbicidal activity against one-leaf stage Amaranthus retroflexus under greenhouse condition at 7.5 g /ha measured after 24 days by spray method; format: functional; details: 576 h, read-out: GI
# Amaranthus retroflexus [32] = assay: Post-emergence herbicidal activity against one-leaf stage Amaranthus retroflexus under greenhouse condition at 15 g /ha measured after 24 days by spray method; format: functional; details: 576 h, read-out: GI
# Amaranthus retroflexus [33] = assay: Post-emergence herbicidal activity against one-leaf stage Amaranthus retroflexus under greenhouse condition at 30 g /ha measured after 24 days by spray method; format: functional; details: 576 h, read-out: GI
# Amaranthus retroflexus [34] = assay: Post-emergence herbicidal activity against one-leaf stage Amaranthus retroflexus under greenhouse condition at 60 g /ha measured after 24 days by spray method; format: functional; details: 576 h, read-out: GI
# Amaranthus retroflexus [35] = assay: Post-emergence herbicidal activity against one-leaf stage Amaranthus retroflexus under greenhouse condition at 75 g /ha measured after 24 days by spray method; format: functional; details: 576 h, read-out: GI
# Amaranthus retroflexus [36] = assay: Post-emergence herbicidal activity against one-leaf stage Amaranthus retroflexus under greenhouse condition at 150 g /ha measured after 24 days by spray method; format: functional; details: 576 h, read-out: GI
# Amaranthus retroflexus [37] = assay: Post-emergence herbicidal activity against one-leaf stage Amaranthus retroflexus under greenhouse condition at 300 g /ha measured after 24 days by spray method; format: functional; details: 576 h, read-out: GI
# Amaranthus retroflexus [38] = assay: Post-emergence herbicidal activity against one-leaf stage Amaranthus retroflexus under greenhouse condition at 600 g /ha measured after 24 days by spray method; format: functional; details: 576 h, read-out: GI
# Amaranthus retroflexus [39] = assay: Post-emergence herbicidal activity against one-leaf stage Amaranthus retroflexus under greenhouse condition assessed as complete bleaching of leaves at 7.5 g /ha measured after 24 days by spray method; format: functional, organism-based
# Amaranthus retroflexus [40] = assay: Post-emergence herbicidal activity against one-leaf stage Amaranthus retroflexus under greenhouse condition assessed as complete bleaching of leaves at 30 g /ha measured after 24 days by spray method; format: functional, organism-based
# Amaranthus retroflexus [41] = assay: Post-emergence herbicidal activity against one-leaf stage Amaranthus retroflexus under greenhouse condition assessed as complete bleaching of leaves at 60 g /ha measured after 24 days by spray method; format: functional, organism-based
# Amaranthus retroflexus [42] = assay: Post-emergence herbicidal activity against one-leaf stage Amaranthus retroflexus under greenhouse condition assessed as complete bleaching of leaves at 75 g /ha measured after 24 days by spray method; format: functional, organism-based
compound,measurement,setting,value
Cc1cc(-c2cccc(C(F)(F)F)c2)c(Oc2ccc(Cl)c(Cl)c2)nn1,Activity,[1],Active
same,inhibition of growth at 7.5 g/ha,[2],58%
same,inhibition of growth at 15 g/ha,[3],89%
same,inhibition of growth at 30 g/ha,[4],100%
same,inhibition of growth at 60 g/ha,[5],100%
same,inhibition of growth at 75 g/ha,[6],100%
same,inhibition of growth at 150 g/ha,[7],100%
same,inhibition of growth at 300 g/ha,[8],100%
same,inhibition of growth at 600 g/ha,[9],100%
same,inhibition of growth at 750 g/ha,Digitaria [10],100%
same,inhibition of growth at 750 g/ha,Echinochloa crus-galli [11],87%
same,inhibition of growth at 750 g/ha,Amaranthus retroflexus [12],100%
same,inhibition of growth at 750 g/ha,[13],100%
same,inhibition of growth at 750 g/ha,Digitaria [14],6%
same,inhibition of growth at 750 g/ha,Echinochloa crus-galli [15],19%
same,inhibition of growth at 750 g/ha,Amaranthus retroflexus [16],0%
same,inhibition of growth at 750 g/ha,[17],27%
same,inhibition at 1 µg/mL,Spirodela polyrhiza [18],93%
same,inhibition at 10 µg/mL,Spirodela polyrhiza [19],96%
same,Activity,Amaranthus retroflexus [20],Active
same,Activity,Amaranthus retroflexus [21],Active
same,Activity,Amaranthus retroflexus [22],Active
same,Activity,[23],Active
same,Activity,[24],Active
same,Activity,[25],Active
same,Activity,[26],Active
same,Activity,[27],Active
same,Activity,[28],Active
same,Activity,[29],Active
same,Activity,Amaranthus retroflexus [30],Active
same,inhibition of growth at 7.5 g/ha,Amaranthus retroflexus [31],32%
same,inhibition of growth at 15 g/ha,Amaranthus retroflexus [32],34%
same,inhibition of growth at 30 g/ha,Amaranthus retroflexus [33],42%
same,inhibition of growth at 60 g/ha,Amaranthus retroflexus [34],47%
same,inhibition of growth at 75 g/ha,Amaranthus retroflexus [35],85%
same,inhibition of growth at 150 g/ha,Amaranthus retroflexus [36],100%
same,inhibition of growth at 300 g/ha,Amaranthus retroflexus [37],100%
same,inhibition of growth at 600 g/ha,Amaranthus retroflexus [38],100%
same,Activity,Amaranthus retroflexus [39],Active
same,Activity,Amaranthus retroflexus [40],Active
same,Activity,Amaranthus retroflexus [41],Active
same,Activity,Amaranthus retroflexus [42],Active
Cc1cc(-c2cccc(C(F)(F)F)c2)c(Oc2ccc(C#N)cc2)nn1,Activity,[1],Active
same,inhibition of growth at 7.5 g/ha,[2],41%
same,inhibition of growth at 15 g/ha,[3],47%
same,inhibition of growth at 30 g/ha,[4],57%
same,inhibition of growth at 60 g/ha,[5],89%
same,inhibition of growth at 75 g/ha,[6],90%
same,inhibition of growth at 150 g/ha,[7],95%
same,inhibition of growth at 300 g/ha,[8],98%
same,inhibition of growth at 600 g/ha,[9],99%
same,inhibition of growth at 750 g/ha,Digitaria [10],99%
same,inhibition of growth at 750 g/ha,Echinochloa crus-galli [11],83%
same,inhibition of growth at 750 g/ha,Amaranthus retroflexus [12],100%
same,inhibition of growth at 750 g/ha,[13],96%
same,inhibition of growth at 750 g/ha,Digitaria [14],99%
same,inhibition of growth at 750 g/ha,Echinochloa crus-galli [15],91%
same,inhibition of growth at 750 g/ha,Amaranthus retroflexus [16],99%
same,inhibition of growth at 750 g/ha,[17],100%
same,inhibition at 1 µg/mL,Spirodela polyrhiza [18],87%
same,inhibition at 10 µg/mL,Spirodela polyrhiza [19],93%
same,Activity,Amaranthus retroflexus [20],Active
same,Activity,Amaranthus retroflexus [21],Active
same,Activity,Amaranthus retroflexus [22],Active
same,Activity,[23],Active
same,Activity,[24],Active
same,Activity,[25],Active
same,Activity,[26],Active
same,Activity,[27],Active
same,Activity,[28],Active
same,Activity,[29],Active
same,Activity,Amaranthus retroflexus [30],Active
same,inhibition of growth at 7.5 g/ha,Amaranthus retroflexus [31],34%
same,inhibition of growth at 15 g/ha,Amaranthus retroflexus [32],37%
same,inhibition of growth at 30 g/ha,Amaranthus retroflexus [33],38%
same,inhibition of growth at 60 g/ha,Amaranthus retroflexus [34],42%
same,inhibition of growth at 75 g/ha,Amaranthus retroflexus [35],99%
same,inhibition of growth at 150 g/ha,Amaranthus retroflexus [36],100%
same,inhibition of growth at 300 g/ha,Amaranthus retroflexus [37],100%
same,inhibition of growth at 600 g/ha,Amaranthus retroflexus [38],100%
same,Activity,Amaranthus retroflexus [39],Active
same,Activity,Amaranthus retroflexus [40],Active
same,Activity,Amaranthus retroflexus [41],Active
same,Activity,Amaranthus retroflexus [42],Active
